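Each compound was tested at five concentrations against cells in 96-well plates for 48 hours. Abbreviation: GI50, concentration required for 50% inhibition of growth. TGI is the concentration that stops growth completely.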
What was measured:
Test in all cases: growth of human tumour cells (NCI), 48 h
SN12C renal = test system: SN12C renal
K-562 leukemia = test system: K-562 leukemia
HL-60(TB) leukemia = test system: HL-60(TB) leukemia
IGROV1 ovarian = test system: IGROV1 ovarian
NCI/ADR-RES ovarian = test system: NCI/ADR-RES ovarian
ACHN renal = test system: ACHN renal
NCI-H226 lung = test system: NCI-H226 lung
A498 renal = test system: A498 renal
MDA-MB-435 = test system: MDA-MB-435
CAKI-1 renal = test system: CAKI-1 renal
SK-MEL-5 melanoma = test system: SK-MEL-5 melanoma
LOX IMVI melanoma = test system: LOX IMVI melanoma
SF-268 CNS = test system: SF-268 CNS
OVCAR-5 ovarian = test system: OVCAR-5 ovarian
BT-549 breast = test system: BT-549 breast
RXF 393 renal = test system: RXF 393 renal
MDA-MB-231 breast = test system: MDA-MB-231 breast
HCT-15 colon = test system: HCT-15 colon
CCRF-CEM leukemia = test system: CCRF-CEM leukemia
SNB-75 CNS = test system: SNB-75 CNS
SR leukemia = test system: SR leukemia
OVCAR-8 ovarian = test system: OVCAR-8 ovarian
HT29 colon = test system: HT29 colon
KM12 colon = test system: KM12 colon
NCI-H460 lung = test system: NCI-H460 lung
HCT-116 colon = test system: HCT-116 colon
786-0 renal = test system: 786-0 renal
UO-31 renal = test system: UO-31 renal
SF-295 CNS = test system: SF-295 CNS
SW-620 colon = test system: SW-620 colon
HCC-2998 colon = test system: HCC-2998 colon
PC-3 prostate = test system: PC-3 prostate
HOP-92 NSCLC = test system: HOP-92 NSCLC
U251 CNS = test system: U251 CNS
SK-MEL-28 melanoma = test system: SK-MEL-28 melanoma
UACC-62 melanoma = test system: UACC-62 melanoma
DU-145 prostate = test system: DU-145 prostate
MOLT-4 leukemia = test system: MOLT-4 leukemia
SNB-19 CNS = test system: SNB-19 CNS
NCI-H522 lung = test system: NCI-H522 lung
MALME-3M melanoma = test system: MALME-3M melanoma
OVCAR-4 ovarian = test system: OVCAR-4 ovarian
M14 melanoma = test system: M14 melanoma
UACC-257 melanoma = test system: UACC-257 melanoma
A549 NSCLC = test system: A549 NSCLC
TK-10 renal = test system: TK-10 renal
HOP-62 NSCLC = test system: HOP-62 NSCLC
HS 578T breast = test system: HS 578T breast
MCF7 breast = test system: MCF7 breast
SK-OV-3 ovarian = test system: SK-OV-3 ovarian
OVCAR-3 ovarian = test system: OVCAR-3 ovarian
SF-539 CNS = test system: SF-539 CNS
SK-MEL-2 melanoma = test system: SK-MEL-2 melanoma
T-47D breast = test system: T-47D breast
NCI-H23 lung = test system: NCI-H23 lung
COLO 205 colon = test system: COLO 205 colon
RPMI-8226 leukemia = test system: RPMI-8226 leukemia
EKVX NSCLC = test system: EKVX NSCLC

SMILES: O=C(Nc1cccc(-n2cc(-c3ccncc3)c(-c3ccc(Cl)c(O)c3)n2)c1)c1ccc(N2CCOCC2)c(C(F)(F)F)c1
- GI50 (SN12C renal): 22 µM
- TGI (SN12C renal): > 50 µM
- GI50 (K-562 leukemia): 1.88 µM
- TGI (K-562 leukemia): > 50 µM
- GI50 (HL-60(TB) leukemia): 3.81 µM
- TGI (HL-60(TB) leukemia): > 50 µM
- GI50 (IGROV1 ovarian): 9.42 µM
- TGI (IGROV1 ovarian): > 50 µM
- GI50 (NCI/ADR-RES ovarian): 2.86 µM
- TGI (NCI/ADR-RES ovarian): > 50 µM
- GI50 (ACHN renal): 1.92 µM
- TGI (ACHN renal): > 50 µM
- GI50 (NCI-H226 lung): > 50 µM
- TGI (NCI-H226 lung): > 50 µM
- GI50 (A498 renal): 15.5 µM
- TGI (A498 renal): > 50 µM
- GI50 (MDA-MB-435): 2.04 µM
- TGI (MDA-MB-435): > 50 µM
- GI50 (CAKI-1 renal): 2.78 µM
- TGI (CAKI-1 renal): 24.6 µM
- GI50 (SK-MEL-5 melanoma): 2.47 µM
- TGI (SK-MEL-5 melanoma): 10.2 µM
- GI50 (LOX IMVI melanoma): 1.64 µM
- TGI (LOX IMVI melanoma): 7.29 µM
- GI50 (SF-268 CNS): 5.58 µM
- TGI (SF-268 CNS): > 50 µM
- GI50 (OVCAR-5 ovarian): > 50 µM
- TGI (OVCAR-5 ovarian): > 50 µM
- GI50 (BT-549 breast): 19.4 µM
- TGI (BT-549 breast): > 50 µM
- GI50 (RXF 393 renal): 0.626 µM
- TGI (RXF 393 renal): 2.9 µM
- GI50 (MDA-MB-231 breast): 0.975 µM
- TGI (MDA-MB-231 breast): 15.6 µM
- GI50 (HCT-15 colon): 1.81 µM
- TGI (HCT-15 colon): 25.3 µM
- GI50 (CCRF-CEM leukemia): 1.82 µM
- TGI (CCRF-CEM leukemia): > 50 µM
- GI50 (SNB-75 CNS): 1.3 µM
- TGI (SNB-75 CNS): > 50 µM
- GI50 (SR leukemia): 1.63 µM
- TGI (SR leukemia): > 50 µM
- GI50 (OVCAR-8 ovarian): 3.16 µM
- TGI (OVCAR-8 ovarian): > 50 µM
- GI50 (HT29 colon): 14.4 µM
- TGI (HT29 colon): > 50 µM
- GI50 (KM12 colon): 1.94 µM
- TGI (KM12 colon): > 50 µM
- GI50 (NCI-H460 lung): 1.72 µM
- TGI (NCI-H460 lung): 14.8 µM
- GI50 (HCT-116 colon): 2.87 µM
- TGI (HCT-116 colon): > 50 µM
- GI50 (786-0 renal): 2.83 µM
- TGI (786-0 renal): 12.5 µM
- GI50 (UO-31 renal): 2.6 µM
- TGI (UO-31 renal): 34.3 µM
- GI50 (SF-295 CNS): 1.71 µM
- TGI (SF-295 CNS): 7.55 µM
- GI50 (SW-620 colon): 1.72 µM
- TGI (SW-620 colon): 5.68 µM
- GI50 (HCC-2998 colon): 5.66 µM
- TGI (HCC-2998 colon): > 50 µM
- GI50 (PC-3 prostate): 2.15 µM
- TGI (PC-3 prostate): > 50 µM
- GI50 (HOP-92 NSCLC): 0.555 µM
- TGI (HOP-92 NSCLC): 3.81 µM
- GI50 (U251 CNS): 1.85 µM
- TGI (U251 CNS): 24.9 µM
- GI50 (SK-MEL-28 melanoma): 1.5 µM
- TGI (SK-MEL-28 melanoma): 6.04 µM
- GI50 (UACC-62 melanoma): 3.26 µM
- TGI (UACC-62 melanoma): 18.4 µM
- GI50 (DU-145 prostate): 4.2 µM
- TGI (DU-145 prostate): > 50 µM
- GI50 (MOLT-4 leukemia): 2.37 µM
- TGI (MOLT-4 leukemia): 36.7 µM
- GI50 (SNB-19 CNS): 4.11 µM
- TGI (SNB-19 CNS): > 50 µM
- GI50 (NCI-H522 lung): 2.31 µM
- TGI (NCI-H522 lung): 44 µM
- GI50 (MALME-3M melanoma): 1.25 µM
- TGI (MALME-3M melanoma): 4.08 µM
- GI50 (OVCAR-4 ovarian): 39.2 µM
- TGI (OVCAR-4 ovarian): > 50 µM
- GI50 (M14 melanoma): 1.63 µM
- TGI (M14 melanoma): 9.1 µM
- GI50 (UACC-257 melanoma): 6.3 µM
- TGI (UACC-257 melanoma): 36.8 µM
- GI50 (A549 NSCLC): 3.08 µM
- TGI (A549 NSCLC): > 50 µM
- GI50 (TK-10 renal): 21.3 µM
- TGI (TK-10 renal): > 50 µM
- GI50 (HOP-62 NSCLC): 9.38 µM
- TGI (HOP-62 NSCLC): > 50 µM
- GI50 (HS 578T breast): 1.85 µM
- TGI (HS 578T breast): > 50 µM
- GI50 (MCF7 breast): 2.81 µM
- TGI (MCF7 breast): > 50 µM
- GI50 (SK-OV-3 ovarian): 20 µM
- TGI (SK-OV-3 ovarian): > 50 µM
- GI50 (OVCAR-3 ovarian): 4.81 µM
- TGI (OVCAR-3 ovarian): > 50 µM
- GI50 (SF-539 CNS): 1.37 µM
- TGI (SF-539 CNS): 17.3 µM
- GI50 (SK-MEL-2 melanoma): 2.89 µM
- TGI (SK-MEL-2 melanoma): 15.3 µM
- GI50 (T-47D breast): 35.9 µM
- TGI (T-47D breast): > 50 µM
- GI50 (NCI-H23 lung): 4.2 µM
- TGI (NCI-H23 lung): 30.2 µM
- GI50 (COLO 205 colon): > 50 µM
- TGI (COLO 205 colon): > 50 µM
- GI50 (RPMI-8226 leukemia): 1.4 µM
- TGI (RPMI-8226 leukemia): 12.5 µM

SMILES: Cc1cc2c(cc1Cl)S(=O)(=O)OC(c1ccc([N+](=O)[O-])cc1)=N2
- TGI (SN12C renal): > 100 µM
- TGI (K-562 leukemia): > 100 µM
- TGI (EKVX NSCLC): > 100 µM
- TGI (HL-60(TB) leukemia): > 100 µM
- TGI (IGROV1 ovarian): > 100 µM
- TGI (NCI/ADR-RES ovarian): > 100 µM
- TGI (ACHN renal): > 100 µM
- TGI (NCI-H226 lung): > 100 µM
- TGI (A498 renal): > 100 µM
- TGI (MDA-MB-435): > 100 µM
- TGI (CAKI-1 renal): > 100 µM
- TGI (SK-MEL-5 melanoma): > 100 µM
- TGI (LOX IMVI melanoma): > 100 µM
- TGI (SF-268 CNS): > 100 µM
- TGI (BT-549 breast): > 100 µM
- TGI (RXF 393 renal): > 100 µM
- TGI (MDA-MB-231 breast): > 100 µM
- TGI (HCT-15 colon): > 100 µM
- TGI (CCRF-CEM leukemia): > 100 µM
- TGI (SNB-75 CNS): > 100 µM
- TGI (SR leukemia): > 100 µM
- TGI (OVCAR-8 ovarian): > 100 µM
- TGI (HT29 colon): > 100 µM
- TGI (KM12 colon): > 100 µM
- TGI (NCI-H460 lung): > 100 µM
- TGI (HCT-116 colon): > 100 µM
- TGI (786-0 renal): > 100 µM
- TGI (UO-31 renal): > 100 µM
- TGI (SF-295 CNS): > 100 µM
- TGI (SW-620 colon): > 100 µM
- TGI (HCC-2998 colon): > 100 µM
- TGI (PC-3 prostate): > 100 µM
- TGI (HOP-92 NSCLC): > 100 µM
- TGI (U251 CNS): > 100 µM
- TGI (SK-MEL-28 melanoma): > 100 µM
- TGI (UACC-62 melanoma): > 100 µM
- TGI (DU-145 prostate): > 100 µM
- TGI (MOLT-4 leukemia): > 100 µM
- TGI (SNB-19 CNS): > 100 µM
- TGI (NCI-H522 lung): > 100 µM
- TGI (MALME-3M melanoma): > 100 µM
- TGI (OVCAR-4 ovarian): > 100 µM
- TGI (M14 melanoma): > 100 µM
- TGI (UACC-257 melanoma): > 100 µM
- TGI (A549 NSCLC): > 100 µM
- TGI (TK-10 renal): > 100 µM
- TGI (HOP-62 NSCLC): > 100 µM
- TGI (HS 578T breast): > 100 µM
- TGI (MCF7 breast): > 100 µM
- TGI (SK-OV-3 ovarian): > 100 µM
- TGI (OVCAR-3 ovarian): > 100 µM
- TGI (SF-539 CNS): > 100 µM
- TGI (T-47D breast): > 100 µM
- TGI (COLO 205 colon): > 100 µM
- TGI (RPMI-8226 leukemia): > 100 µM

— PubChem BioAssay (NCI)
